Data set [1] deals with Huh-7. The data set can be described thus: Antitumor activity against human Huh-7 cells xenografted in NSG mouse assessed as tumor growth inhibition at 100 mg/kg, po administered every 3 days for 24 days and measured every 3 days. The format is functional. The following applies: Huh-7, 576 h, time 24 day, read-out: TGI.
The test system of another data set is HEK293T. Briefly: Inhibition of TEAD (unknown origin) expressed in HEK293T cells transfected with 8xGTIIC-luciferase at 10 uM by dual luciferase reporter assay relative to control. It is filed as cell-based. The note with it: Homo sapiens.
For data set [2], the system named is Huh-7. Briefly: Antiproliferative activity against human Huh-7 cells incubated for 3 days by CCK8 assay. It is filed as functional, cell-based. The following applies: Huh-7, 72 h.
Data set [3] has as its system Huh-7. Briefly: (§1) Inhibition of TEAD transcription in human Huh-7 cells transfected with 8xGTIIC-luciferase by dual luciferase reporter assay. The format is cell-based.
Data set [4] concerns Huh-7. The data set can be described thus: Inhibition of TEAD transcription in human Huh-7 cells transfected with 8xGTIIC-luciferase assessed as downregulation of CTGF protein expression by Western blotting analysis. The following applies: dose 1.25-15 µM. The format is cell-based.
Data set [5] can be described thus: Antiproliferative activity against mouse AML12 cells at 10 uM incubated for 3 days by CCK8 assay. It is filed as toxicity, cell-based. The following applies: time 3 day.
The nature of data set [6]: as §1. It is filed as cell-based.
Data set [7] has as its system Huh-7. The data set can be described thus: Inhibition of TEAD transcription in human Huh-7 cells transfected with 8xGTIIC-luciferase assessed as downregulation of CTGF mRNA expression incubated for 24 hrs by RT-PCR analysis. The following applies: dose 1.25-10 µM. The format is cell-based.

Structures are written as SMILES.

Take `CNC(=O)c1cc(Oc2ccc(NC(=O)Nc3ccc(Cl)c(C(F)(F)F)c3)cc2)ccn1` [SORAFENIB]: the inhibition in vivo at 100 mg/kg with Huh-7 [1] is 76%.

Molecule `O=C(CCl)c1c[nH]c2cc(Cl)c(OCc3cccc4ccccc34)cc12` yielded an inhibition in the data set on HEK293T of 69.4%. In the data set with Huh-7 [2], this molecule registered an IC50 of 1.6 µM.

`O=C(CCl)c1c[nH]c2cc(Cl)c(OCc3ccc(C(F)(F)F)c(F)c3)cc12` showed a concentration for half-maximal inhibition (IC50) in the data set with Huh-7 [2] of 1.8 µM.

With `O=C(CCl)NCc1c[nH]c2cc(Cl)c(OCc3cccc(C(F)(F)F)c3)cc12`, the inhibition in the data set with HEK293T was determined as 47.9%. This molecule returned an IC50 in the data set on Huh-7 [2] of 8.3 µM.

In the case of `C=CC(=O)NCc1c[nH]c2cc(Cl)c(OCc3ccccc3)cc12`, the IC50 in the data set on Huh-7 [2] is above 50 µM.

On to `COc1cc2[nH]cc(C(=O)CCl)c2cc1OCc1cccc2ccccc12`, for which the inhibition with HEK293T is 64.5%. Besides, the IC50 with Huh-7 [2] stood at 2.5 µM.

Take `O=C(CCl)NCc1c[nH]c2cc(Cl)c(OCc3ccccc3)cc12`: the inhibition was 97.8% in the data set on HEK293T, “Dose-Dependent Effect” in the data set on Huh-7 [3] and “Dose-Dependent Effect” in the data set with Huh-7 [4]. In the data set with Huh-7 [2], this molecule came in with a half-maximal inhibitory concentration (IC50) of 1.2 µM.

In turn, `N#C/C(=C\c1c[nH]c2cc(Cl)c(OCc3cccc(C(F)(F)F)c3)cc12)C(N)=O` had an inhibition with HEK293T of 59.7%. In the data set with Huh-7 [2], this molecule gave an IC50 of 5.2 µM.

In the case of `O=C(CCl)c1c[nH]c2cc(Cl)c(OCc3ccc(C(F)(F)F)cc3)cc12`, 16.9 µM corresponded to half-maximal inhibition with Huh-7 [2] (IC50).

The molecule `Clc1cc2[nH]ccc2cc1OCc1ccccc1` had an inhibition in the data set with HEK293T of 68.3%. Moreover, the results for the IC50 (with Huh-7 [2]; in data set [6]) were 32.5 µM and 5 µM, respectively. The molecule also returned an inhibition at 72 h, 10 µM in data set [5] of 20.3%.

For the molecule `N#C/C(=C\c1c[nH]c2cc(Cl)c(OCc3ccc4ccccc4c3)cc12)C(N)=O`, the inhibition in the data set with HEK293T stood at 47.3%. For the same molecule, the IC50 in the data set with Huh-7 [2] came to 4.1 µM.

For `O=C(CCl)c1c[nH]c2ccc(OCc3ccc4ccccc4c3)cc12`, the inhibition with HEK293T came out at 5.3%. This molecule also yielded an IC50 in the data set with Huh-7 [2] above 20 µM.

`O=C(CCl)c1c[nH]c2cc(Cl)c(OCc3ccccc3)cc12`: the inhibition in the data set on HEK293T was 74.6%. For the same molecule, half-maximal inhibition with Huh-7 [2] (IC50) was put at 2.7 µM.

In turn, `O=C(CCl)NCc1c[nH]c2cc(Cl)c(OCc3cccc4ccccc34)cc12` displayed an inhibition in the data set on HEK293T of 81.5%. For the same molecule, half-maximal inhibition in the data set on Huh-7 [2] (IC50) required 0.8 µM.

The molecule `N#C/C(=C\c1c[nH]c2cc(Cl)c(OCc3ccccc3)cc12)C(N)=O` came in with an IC50 with Huh-7 [2] above 50 µM.

On to `COc1cc2[nH]cc(C(=O)CCl)c2cc1OCc1ccccc1`, for which the inhibition in the data set on HEK293T was 53.7%. The same molecule came in with an IC50 with Huh-7 [2] of 3.8 µM.

With `N#C/C(=C\c1c[nH]c2cc(Cl)c(OCc3ccc4ccccc4n3)cc12)C(N)=O`, in the data set on Huh-7 [2], the IC50 is 68.7 µM. This lies in the double-digit micromolar range.

As to `O=C(CCl)c1c[nH]c2cc(Cl)c(OCc3ccc4ccccc4c3)cc12`, the inhibition in the data set with HEK293T is 95.6%; in the data set with Huh-7 [7], “Dose-Dependent Effect”; in the data set on Huh-7 [4], “Dose-Dependent Effect”. Also, the results for the IC50 (with Huh-7 [2]; in data set [6]) were 2.3 µM and 0.87 µM, respectively.

The molecule `O=C(CCl)NCc1c[nH]c2cc(Cl)c(OCc3ccc4ccccc4c3)cc12` returned an inhibition with HEK293T of 67.4%. Further, in the data set with Huh-7 [2], the IC50 was 5.7 µM.

In the data set with HEK293T, `C=C(CN(C)C)C(=O)NCc1c[nH]c2cc(Cl)c(OCc3ccccc3)cc12` registered an inhibition of 71.8%. The same molecule gave an IC50 in the data set with Huh-7 [2] of 2 µM.

Molecule `N#C/C(=C\c1c[nH]c2cc(Cl)c(OCC3CCC(F)(F)CC3)cc12)C(N)=O` showed an inhibition in the data set with HEK293T of 60.1%. The molecule also returned an IC50 in the data set with Huh-7 [2] of 5.3 µM.

Molecule `COc1cc2[nH]cc(C(=O)CCl)c2cc1OCc1ccc2ccccc2c1` had an inhibition with HEK293T of 93.9%. In addition, half-maximal inhibition in the data set on Huh-7 [2] (IC50) required 2.4 µM.

Consider `C=CC(=O)NCc1c[nH]c2cc(Cl)c(OCc3ccc4ccccc4c3)cc12`, for which the inhibition with HEK293T was determined as 1.5%. The molecule also displayed an IC50 in the data set with Huh-7 [2] of 30.2 µM.

`O=C(CCl)c1c[nH]c2ccc(OCc3ccccc3)cc12` came in with an inhibition in the data set with HEK293T of 20.5%. Besides, in the data set with Huh-7 [2], the IC50 was determined as 10.5 µM.

Turning to `C=CC(=O)NCc1c[nH]c2cc(Cl)c(OCc3cccc4ccccc34)cc12`, the inhibition in the data set with HEK293T turned out to be 10.6%. The molecule also gave an IC50 in the data set with Huh-7 [2] of 14.4 µM.

These data come from ChEMBL document CHEMBL5614440, “Development of Novel Indole-Based Covalent Inhibitors of TEAD as Potential Antiliver Cancer Agents” (J Med Chem, 2024).
